# Measured values taken from patent US20260256772A1, “BENZOTHIAZOLE COMPOUND AND USE THEREOF” (NANJING REJU THERAPEUTICS, INC., priority 2022, published 2026).
# How the values were obtained:
# [1] = system: renal fibrosis; assay: Renal fibrosis animal model (ureter ligation); assay type: in vivo, C57BL/6J mice; conditions: FIG. 11; for serum creatinine (Cr) levels / urea nitrogen (BUN) levels: intraperitoneal (IP) injection from 2nd week of modelling; for pathology: intraperitoneal (IP) injection, kidney Masson staining
# Experimental: In this test example, the efficacy of the compound of the present disclosure was tested on renal fibrosis in an animal model of renal fibrosis. Briefly, C57BL/6J mice, male, 7 to 8 weeks old, were used. The mice were anaesthetized, made to lie supine on a foam board, and disinfected with iodophor, and a longitudinal incision was made in the skin in the middle of the lower abdomen to locate the white line of the abdominal muscle, where the abdominal muscle, fascia and peritoneal layer were dissected. After exposing the surgical field, the kidneys were exposed by pushing the stomach and mesentery of the mice to the right side with a gauze soaked with saline. The model of renal fibrosis was constructed by locating the transparent ureter from the renal pelvis along the renal artery, separating the left ureter, ligating the upper ⅓ of the left ureter, suturing the incision layer by layer, and finally disinfecting with iodophor. Dosing via intraperitoneal injection started from the 2nd week of modelling. At the end of the experiment, the mouse serum was collected, and kidney tissues were taken for Masson staining index assay.
# [2] = system: wet-age-related macular degeneration; assay: CNV animal model of wet-age-related macular degeneration; assay type: in vivo, mice; conditions: intravitreal (IVT), FIG. 5
# Experimental: In this test example, the efficacy of the compounds of the present disclosure was tested on wet-age-related macular degeneration in a CNV animal model.
# Male mice were administered 0.5% probacaine hydrochloride (Alcon) for local anesthesia, and 1% tropicamide to dilate the pupils of the mice. Laser cauterization was performed using a laser photocoagulator (Novus Varia, LUMENIS) with a slit lamp delivery system. And artificially torn adherent glass coverslips were used as contact lenses. Bleeding spots caused by lasers were not included in the statistics. In each experimental group, six mice were analyzed with four impacts per eye to overcome inherent variability.
# [3] = system: platelets; assay: Platelet toxicity test in mice (platelet count); assay type: in vivo; conditions: mice, 0.5 mg/kg single intraperitoneal injection, blood at 6 hours, FIG. 1
# Experimental: In this test example, C57 mice were chosen to detect the effect of the target compounds on platelets.
# 7 to 8 weeks old […] mice were randomly divided into vehicle group and compound group. The test compound (0.5 mg/kg) or blank vehicle was administrated via single intraperitoneal injection. Blood was collected from the retroorbital venous plexus of the mice at 6 hours, and placed in a blood routine tube containing anticoagulant EDTA-K2. After shaking gently, the blood physiological indicators were measured using a hematology analyzer, with the platelet count as the target parameter for this platelet toxicity test.
# [4] = system: oxygen-induced retinopathy (OIR); assay: Mouse model of oxygen-induced retinopathy (OIR); assay type: in vivo; conditions: intravitreal (IVT), 1 μL of 200 μM at P12, read at P17, FIG. 3
# Experimental: The efficacy of the prodrugs RX001-RX006 as well as RX301 were investigated in a mouse model of oxygen-induced retinopathy (OIR) which to some extent indicates an in vivo model of retinopathy of prematurity (ROP), diabetic retinopathy, and wet age-related macular degeneration.
# From postnatal Day 7 (P7) to Day 12 (P12), C57Bl/6 mouse pups and their CD 1 foster mothers were exposed to hyperoxia (75% 02). At P12, the animals were injected intravitreally with 1 μL of the test composition formulated in 1% DMSO, 10% Tween 80, and 20% PEG-400 (200 μM of the compound) and returned to room air until day 17 (P17). On P17, the eyeballs were enucleated, and the retinas were dissected for vascular staining. To determine the area of avascularity or angiogenesis, the retinas were flattened and stained with isolectin B4 (IB4).
Structure (SMILES),serum creatinine (Cr) levels [1],urea nitrogen (BUN) levels [1],pathology [1],fluorescence intensity indicators [2],platelet toxicity (platelet count) [3],angiogenesis [4],avascular zone [4]
CCN1CCN(C(=O)c2nc(N3CCc4cccc(C(=O)Nc5nc6ccccc6s5)c4C3)ccc2-c2cnn(CC34CC5CC(CC(C5)C3)C4)c2C)CC1 [RX001],statistically significant improvements,statistically significant improvements,statistically significant improvements,statistically significant improvements,–,–,–
Cc1c(-c2ccc(N3CCc4cccc(C(=O)Nc5nc6ccccc6s5)c4C3)nc2C(=O)N2CCC(CCOP(=O)(O)O)CC2)cnn1CC12CC3CC(CC(C3)C1)C2 [RX301],statistically significant improvements,statistically significant improvements,statistically significant improvements,statistically significant improvements,significantly improved,statistically significant improvements,statistically significant improvements
